Measured values: patent US8877765B2, “Highly soluble pyrimido-dione-quinoline compounds and their use in the treatment of cancer” (The United States of America as represented by the …, priority 2006, dated 2014)
Where a SMILES comes first, the peptide text is derived from it. [ ]: non-standard residue; d: D form. Nle = CCCC[C@H](N)C(=O)O

Key:
[1] = molecular target: T1, Hdm2 (Homo sapiens, UniProt Q00987); settings: U2OS cells; FIG. 6
[2] = system: AO7 (RNF25); assay: E3 specificity: level of transfected AO7 in MEFs expressing neither Mdm2 nor p53; settings: immunoblotting, FIG. 5
From the text: (§1) Following treatment with ALLN, 1, 2 (10-(4-methyl-phenyl)-7-nitro-10H-pyrimido[4,5-b]quinoline-2,4-dione), 3 (10-(4-chloro-phenyl)-7-nitro-10H-pyrimido[4,5-b]quinoline-2,4-dione), and 4 (10-(3-chloro-phenyl)-7-nitro-10H-pyrimido[4,5-b]quinoline-2,4-dione), levels of the E3s were examined by immunoblotting with specific antibodies.

[3] = molecular target: T1, Hdm2; assay: E3 specificity: level of transfected Hdm2 in MEFs expressing neither Mdm2 nor p53; settings: immunoblotting, FIG. 5
From the text: as §1

[4] = molecular target: gp78 (AMFR) (Homo sapiens, UniProt Q9UKV5); assay: E3 specificity: level of transfected gp78 in MEFs expressing neither Mdm2 nor p53; settings: immunoblotting, FIG. 5
gp78 (AMFR), sequence (Q9UKV5 whole entry, species assumed): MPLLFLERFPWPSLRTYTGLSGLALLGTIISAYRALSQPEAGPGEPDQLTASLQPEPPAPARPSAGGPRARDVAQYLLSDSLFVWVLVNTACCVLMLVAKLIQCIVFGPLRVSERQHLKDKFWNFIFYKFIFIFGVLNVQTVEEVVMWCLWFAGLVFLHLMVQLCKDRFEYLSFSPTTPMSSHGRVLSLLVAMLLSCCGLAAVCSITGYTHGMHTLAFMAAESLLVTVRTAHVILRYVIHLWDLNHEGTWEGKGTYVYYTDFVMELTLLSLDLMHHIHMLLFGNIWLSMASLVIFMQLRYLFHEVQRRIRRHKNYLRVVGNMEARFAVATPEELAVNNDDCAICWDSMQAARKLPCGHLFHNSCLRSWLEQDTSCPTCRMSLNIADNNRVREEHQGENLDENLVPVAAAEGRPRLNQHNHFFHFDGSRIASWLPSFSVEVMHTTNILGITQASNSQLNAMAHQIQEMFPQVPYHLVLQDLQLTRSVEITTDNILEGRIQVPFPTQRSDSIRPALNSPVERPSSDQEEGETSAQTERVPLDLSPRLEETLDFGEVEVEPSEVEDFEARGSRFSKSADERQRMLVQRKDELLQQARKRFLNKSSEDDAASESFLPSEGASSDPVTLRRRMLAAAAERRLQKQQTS
From the text: as §1

[5] = system: Hdm2 and p53; assay: Accumulation of Hdm2 and p53 in non-transformed RPE cells (immunoblot); format: cell-based, human; settings: 8 hours, 5 μM or 10 μM solution in PBS, or 5 μm solution in DMSO, FIG. 1
Protocol: Human retina pigment epithelial (RPE) cells were cultured with HyQ DME/F (HyClone) supplemented with 10% FCS and 2.5% Sodium Bicarbonate. They were harvested with Trpsin-EDTA and seeded into a 12-well tissue culture cluster and incubated for 18-40 hours to reach 80% confluent. Following treatment with indicated compounds for 8 hours, the cells were harvested and lysed with RIPA buffer. Following removal of insoluble pellet by centrifugation for 20 minutes at 10000 rpm, the lysate was separated on a 4-20% gradient SDS-polyacrylamide gel and transferred onto nitrocellulose membrane. The membrane was then blotted with anti-p53 antibody (DO-1) anti-Hdm2 antibodies (Ab-1 and Ab-2). After extensive washing with PBS containing 0.5% Triton x-100, it was incubated with HRP-conjugated donkey anti-mouse antibody and visualized using enhanced chemiluminescence.

[6] = system: p53; assay: p53 response element-driven luciferase reporter in U2OS cells; format: cell-based; settings: 18 hours, FIG. 3
Protocol: U2OS cells stably transfected with a p53 response element-driven luciferase were treated with indicated concentration of compounds for 18 hours. The cells were then harvested and lysed to measure luciferase activity using the luciferase assay system (Promega) according to manufacturer's instruction.

[7] = system: tumor cells expressing wild type p53; assay: Apoptosis-inducing activity in tumor cell lines that do or do not express p53; format: cell-based; settings: pair of cell lines that either do or do not express p53; FIG. 7
[8] = Additional experiments on DNA damage (data not shown)

T1 sequence (Q00987 whole entry): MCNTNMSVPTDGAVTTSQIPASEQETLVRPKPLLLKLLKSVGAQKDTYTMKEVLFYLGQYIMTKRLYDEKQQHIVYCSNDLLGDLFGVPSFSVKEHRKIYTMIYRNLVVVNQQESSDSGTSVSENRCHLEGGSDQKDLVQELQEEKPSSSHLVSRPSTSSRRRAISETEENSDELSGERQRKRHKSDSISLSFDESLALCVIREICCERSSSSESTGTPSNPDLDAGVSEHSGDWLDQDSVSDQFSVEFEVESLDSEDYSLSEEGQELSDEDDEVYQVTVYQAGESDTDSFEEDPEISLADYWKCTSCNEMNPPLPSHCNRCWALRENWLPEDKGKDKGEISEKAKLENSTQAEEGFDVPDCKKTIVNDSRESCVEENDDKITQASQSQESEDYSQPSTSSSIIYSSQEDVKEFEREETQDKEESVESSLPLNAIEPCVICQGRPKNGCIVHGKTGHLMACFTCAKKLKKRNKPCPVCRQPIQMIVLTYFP

Row | accumulation of ubiquitylated p53 [1] | degradation / stabilization of p53 and Hdm2 [1] | level of Hdm2 [3] | level of gp78 [4] | SMILES | level of AO7 [2] | accumulation of both Hdm2 and p53 [5] | capacity to activate a p53 reporter (luciferase activity) [6] | p53 reporter activity compared with proteosome inhibitor and Adriamycin ([6]; concentration of 10 μM) | killing of tumor cells by p53 status [7] | functioning by inducing DNA damage [8]
1 | easily detectable | stabilized Hdm2 and p53 | higher levels | higher levels | CCCC[C@@H](C=O)NC(=O)[C@H](CC(C)C)NC(=O)[C@H](CC(C)C)NC(C)=O [ALLN] (Ac-Leu-Leu-[Nle]-aldehyde) | higher levels | – | – | – | – | –
2 | – | – | – | little effects | CN(C)CCCNc1c2c(=O)n(C)c(=O)nc-2n(C)c2ccccc12 [Compound 1, 5-(3-Dimethylamino-propylamino)-3,10-dimethyl-10H-pyrimido[4,5-b]quinoline-2,4-dione] | – | significant accumulation of both Hdm2 and p53 | high capacity to activate a p53 reporter | much greater than proteosome inhibitor and Adriamycin | preferential killing of tumor cells expressing wild type p53 | ruled out
